Results on 6 compounds are retold here after patent US20220378923A1, “BET DEGRADER” (KYOWA KIRIN CO., LTD., priority 2019, published 2022).

Read-outs that look alike come from different tables or passages of the source. Some results are limits rather than exact numbers.

For assay [1], the system named is DCAF16 KO SU-DHL-4 cells. The assay can be described thus: Inhibitory effect on cell viability using SU-DHL-4 DCAF16 knock out (KO) cell line (Test Example 6). It is filed as cell-based, human. The following applies: for Activity Attenuation Ratio: (SU-DHL-4 DCAF16 KO IC50)/(SU-DHL-4 WT IC50); for IC50: DCAF16 KO SU-DHL-4 cells, 72 hours, Cell Counting Kit-8, 50% inhibition of cell viability. An outline of the steps:
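SU-DHL-4 DLBCL cells carrying lentiviral Cas9 plus DCAF16-targeting sgRNA (three KO strains; non-targeting control strain), seeded 2000 cells/well, pre-cultured 18–25 h, then given 9-step compound dilutions (0.1% DMSO final) for 72 h at 37° C. Viability read by CCK-8 colorimetric assay.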

Assay [2] concerns SU-DHL-4 cells. As to the kind of experiment: Inhibitory effect on cell viability in SU-DHL-4 cell line (Test Example 1). The following applies: 72 hours; for IC50: SU-DHL-4 (wild type) cells, calculated using the measurement results of test example 1, read-out: SU-DHL-4 WT IC50; for IC90: SU-DHL-4 cells, Cell Counting Kit-8, concentration showing 90% inhibition of cell viability, read-out: SU-DHL-4 Cell Viability Inhibition Rate IC90. The format is cell-based, human. An outline of the steps: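 SU-DHL-4 cells were grown at 37° C. under 5% CO2 in RPMI1640 with 10 vol % heat-inactivated FBS plus penicillin/streptomycin, seeded and precultured for 18 to 25 hours, then exposed to test compound at 0.1 vol % DMSO for 72 hours. Viability was read with Cell Counting Kit-8 by absorbance at 450 nm.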

Take `CCC(=O)N1c2ccccc2[C@H](Nc2ccc(Cn3cc(C(=O)Nc4ccc(N[C@@H]5C[C@H](C)N(C(=O)CC)c6ccccc65)cc4)nn3)cc2)C[C@@H]1C` [Compound 5j, 1-(4-(((2S,4R)-2-Methyl-1-propionyl-1,2,3,4-tetrahydroquinolin-4-yl)amino)benzyl)-N-(4-(((2S,4R)-2-methyl-1-propionyl-1,2,3,4-tetrahydroquinolin-4-yl)amino)phenyl)-1H-1,2,3-triazolee-4-carboxamide]: in assay [1], the “Activity Attenuation Ratio” value is on record as 941 and the IC50 amounted to 37.3 nM. For the same compound, in assay [2], the IC50 is 0.04 nM and the 90% effect concentration (IC90) is 0.08 nM.
In the same order, the values of `CCC(=O)N1c2ccccc2[C@H](NCCCCC(=O)NCc2cn(-c3ccc(N[C@@H]4C[C@H](C)N(C(=O)CC)c5ccccc54)cc3)nn2)C[C@@H]1C` (relative stereo) [Compound 12f, 5-(((2S*,4R*)-2-Methyl-1-propionyl-1,2,3,4-tetrahydroquinolin-4-yl)amino)-N-((1-(4-(((2S,4R)-2-methyl-1-propionyl-1,2,3,4-tetrahydroquinolin-4-yl)amino)phenyl)-1H-1,2,3-triazol-4-yl)methyl)pentane amide] are more than 40284, more than 10000 nM, 0.24 nM and 0.42 nM.
On to `CCC(=O)N1c2ccccc2[C@H](Nc2ccc(-c3cnn(CCNC(=O)c4ccc(Cn5c(C(=O)OCCN(C)C)cc6c5CCCC6=O)cc4)c3)cc2)C[C@@H]1C` [Compound 15d, 2-(Dimethylamino)ethyl 1-(4-((2-(4-(4-(((2S,4R)-2-methyl-1-propionyl-1,2,3,4-tetrahydroquinolin-4-yl)amino)phenyl)-1H-pyrazol-1-yl)ethyl)carbamoyl)benzyl)-4-oxo-4,5,6,7-tetrahydro-1H-indole-2-carboxylate], for which, in assay [1], the “Activity Attenuation Ratio” value worked out at 7994. Besides, the results for the IC50 in assay [1] (Homo sapiens) and in assay [2] (Homo sapiens) were 858 nM and 0.11 nM, respectively.
In the case of `CCC(=O)N1c2ccccc2[C@H](Nc2ccc(NC(=O)CCCC(=O)NC3CCC(Cn4cc(-c5c(C)noc5C)ccc4=O)CC3)cc2)C[C@@H]1C` (stereo partly drawn) [Compound 16p, N^1-((1r,4r)-4-((5-(3,5-Dimethylisoxazol-4-yl)-2-oxopyridin-1(2H)-yl)methyl)cyclohexyl)-N5-(4-(((2S,4R)-2-methyl-1-propionyl-1,2,3,4-tetrahydroquinolin-4-yl)amino)phenyl)glutaramide], in assay [1], the “Activity Attenuation Ratio” value turned out to be 3390 and half-maximal inhibition (IC50) was put at 925 nM. In addition, in assay [2], the 50% inhibitory concentration (IC50) was 0.27 nM and the concentration for an effect of 90% (IC90) came to 0.63 nM.
`CCC(=O)N1c2ccccc2[C@H](Nc2ccc(NC(=O)CNC(=O)Nc3ccc(C4=NCc5nnc(C)n5-c5sc(C)c(C)c54)cc3)cc2)C[C@@H]1C` [Compound 14f, N-(4-(((2S,4R)-2-Methyl-1-propionyl-1,2,3,4-tetrahydroquinolin-4-yl)amino)phenyl)-2-(3-(4-(2,3,9-trimethyl-6H-thieno[3,2-f][1,2,4]triazolo[4,3-a][1,4]diazepin-4-yl)phenyl)ureido)acetamide]: the “Activity Attenuation Ratio” value in assay [1] stood at 22. Besides, the half-inhibitory concentration (IC50) is 2.95 nM in assay [1] (Homo sapiens) and 0.14 nM in assay [2] (Homo sapiens).
For the compound `CCC(=O)N1c2ccccc2[C@H](Nc2ccc(-c3cnn(CC(=O)Nc4ccc(C5=NCc6nnc(C)n6-c6sc(C)c(C)c65)cc4)c3)cc2)C[C@@H]1C` [Compound 14a, 2-(4-(4-(((2S,4R)-2-Methyl-1-propionyl-1,2,3,4-tetrahydroquinolin-4-yl)amino)phenyl)-1H-pyrazol-1-yl)-N-(4-(2,3,9-trimethyl-6H-thieno[3,2-f][1,2,4]triazolo[4,3-a][1,4]diazepin-4-yl)phenyl)acetamide], in assay [1], the “Activity Attenuation Ratio” value was determined as 228. In addition, the half-maximal inhibitory concentration (IC50) in assay [1] (Homo sapiens) was 4 nM; in assay [2] (Homo sapiens) it was 0.017 nM.

As a reminder, the IC50 is the concentration that inhibits the measured activity by half. In general, IC90 refers to the point of the concentration-response curve where the effect stands at 90%.
